In PubChem BioAssay AID449764 (Southern Research Specialized Biocontainment Screening …, 2010):

These compounds were tested on Mycobacterium tuberculosis H37Rv growth inhibition, no glycerol (assay: Mycobacterium tuberculosis H37Rv growth inhibition, no glycerol, confirmatory dose response (AID 449764);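 also: growth read after 7 days of incubation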).

| Compound | IC50 |
| --- | --- |
| Cc1cc(C)cc(NC(=O)CCc2ccc(C)o2)c1 | 92.9 µM |
| CCOC(=O)C(C)Sc1nc(-c2cccs2)ccc1C#N (stereo unspecified) | 44.2 µM |
| CC(C)(C)c1ccc(-c2nc(-c3ccncc3)no2)cc1 | 35.2 µM |
| Cc1cccc(C(=O)OCC(=O)N2CCc3ccccc3C2)c1O | 24.8 µM |
| COc1ccc(NC(=O)CSc2nnc(-c3ccccn3)n2N)cc1Cl | 55.6 µM |
| CCOc1cccc2cc(C(=O)Nc3nccs3)c(=O)oc12 | 2.4 µM |
| C(C#CCCCCCCCCC[n+]1ccccc1)#CCCCCCCCCC[n+]1ccccc1 | 4.02 µM |
| O=C(CSc1nn(-c2ccc(F)cc2)c(=S)s1)NCC1CCCO1 (stereo unspecified) | 20.7 µM |
| O=C(Nc1cc(C(F)(F)F)ccc1-n1cncn1)c1ccc([N+](=O)[O-])o1 | 37 µM |
| COc1ccc(/C=C/CN2CCC(CO)(Cc3ccccc3Cl)CC2)cc1 | 24.3 µM |
| CCn1c(=O)c(CCC(=O)N2CCN(c3ccccn3)CC2)c(C)c2c(C)nn(-c3cccc(C)c3)c21 | 21.8 µM |
| CN(C)CCNc1ncnc2c1sc1nc(-c3ccccc3)c3c(c12)CCCC3 | 22.5 µM |
| C=CCc1c(C)nc(C)nc1N/N=C/c1ccccc1O | 4.61 µM |
| C=C(C)C(=O)OCC(O)COc1ccc(C(C)(C)c2ccc(OCC(O)COC(=O)C(=C)C)cc2)cc1 (stereo unspecified) | 35.6 µM |
| COC(=O)c1cc(/C=C/c2ccccc2)on1 | 29.3 µM |
| CCOC(=O)c1cc(-c2ccc(N3CCOCC3)cc2)nn1-c1ccccc1 | 27.9 µM |
| COc1ccccc1C1=NOC(COC(=O)c2ccc([N+](=O)[O-])cc2)C1 (stereo unspecified) | 47.7 µM |
| COC(=O)CCCCC1SCC(NC(=O)c2ccccc2)C1=O (stereo unspecified) | 36.9 µM |
| CNc1ccc2nc3ccccc3[n+](C)c2c1 | 1.16 µM |
| COc1ccccc1OC(=O)c1ccc(S(=O)(=O)N(C)C)cc1 | 16.4 µM |
| Cc1nc(N)nc(N)c1CCCc1ccc(Cl)c(Cl)c1 | 87.4 µM |
| CCN(Cc1ccncc1)Cc1nc(-c2ccc(C(=O)OC)cc2)no1 | 34.2 µM |

| Compound | IC50 |
| --- | --- |
| Cc1ccc2c(c1)c(/C=C/c1cc[n+](C)cc1)c(C)n2C | 5.82 µM |
| COc1cccc(/C=N/Nc2nc(Nc3ccccc3)nc(-n3nc(C)cc3C)n2)c1O | < 0.2 µM |
| O=C(Nc1ccc(OC(F)(F)F)cc1)c1ccc2c(c1)no[n+]2[O-] | 0.24 µM |
| c1ccc(CN2CCC(Nc3nc(-c4ccccc4)nc4ccccc34)CC2)cc1 | 10.9 µM |
| O=[N+]([O-])c1ccc(-c2nc(-c3cccs3)c(-c3cccs3)[nH]2)cc1 | 20.8 µM |
| CCc1ccc(/C(C)=N/Nc2cc(Cl)nc(C)n2)cc1 | 34.1 µM |
| CCOC(=O)c1c(C)[nH]c(N=Nc2ccc(OC)cc2)c1C | 11.3 µM |
| O=[N+]([O-])c1cc(-c2ccc(/C=N\n3cnnc3)o2)cc([N+](=O)[O-])c1 | 45.5 µM |
| Cc1ccc(NC(=O)C2=C(O)CCn3c2nc2ccccc23)cc1 | 13.5 µM |
| COc1ccc(OCCCC(=O)OC(C)C(=O)Nc2ccccc2[N+](=O)[O-])cc1 (stereo unspecified) | 44.9 µM |
| Cc1ccc(C2=NN(C)c3nc4ccccc4n3C2)cc1 | 59.3 µM |
| CCOC(=O)c1cnc(SC2CCc3ccccc3C2=O)nc1N (stereo unspecified) | 87.1 µM |
| Cc1cccc(/C=c2\s/c(=C\C(=O)C(C)(C)C)[nH]c2=O)c1 | 12.4 µM |
| CC(=O)c1ccc(-n2cc(-c3ccc(C(C)(C)C)cc3)[n+]3c2SCCC3)cc1 | 20.3 µM |
| CN(C)c1ccc(O)c2c1CC1CC3[C@@H](N(C)C)C(=O)C(C(N)=O)C(=O)[C@]3(O)C(=O)C1C2=O (stereo partly specified) | 1.93 µM |
| Cc1ccc(S(=O)(=O)Nc2cccc3ncccc23)s1 | 3.38 µM |
| c1ccc(-c2ccccc2OCCCCn2ccnc2)cc1 | 23.3 µM |
| COC(=O)C(C)Oc1cc(C)ccc1COc1ccc(-n2nc(C)n(C(F)F)c2=O)cc1 (stereo unspecified) | 21.3 µM |
| O=C(CNC(=O)c1ccco1)OCc1ccc(C(=O)Oc2ccccc2)cc1 | 16.6 µM |
| Cc1nn2c(NCc3ccccn3)cc(C(C)C)nc2c1-c1ccccc1 | 2.85 µM |
| CCOc1ccc(-c2csc(/C(C#N)=C\c3ccc(O)c([N+](=O)[O-])c3)n2)cc1 | 16.7 µM |
| COc1ccccc1-n1cc2c([N+](=O)[O-])cc([N+](=O)[O-])cc2n1 | 1.98 µM |

| Compound | IC50 |
| --- | --- |
| CN1CCN(Cc2nc3ccccc3c(=O)n2Cc2nc(-c3ccc4ccccc4c3)cs2)CC1 | 20.7 µM |
| Cc1c(C(=O)Nc2nc3ccccc3[nH]2)oc2c(Cl)cccc12 | 80.4 µM |
| Nc1ccc(-c2nc3nc(N)nc(N)c3nc2-c2ccc(N)cc2)cc1 | 48.8 µM |
| Cc1nc(N2CCC(C)CC2)c2oc3ccccc3c2n1 | 22.6 µM |
| c1ccc(-c2nccc(-c3ccc(-n4cnc5ccccc54)cc3)n2)nc1 | 19 µM |
| Cc1cc(OC(=O)c2cccs2)c2c3c(c(=O)oc2c1)CCCC3 | 4.18 µM |
| CCO[C@H]1OC(C(=O)NCc2nc3ccccc3[nH]2)=C[C@@H](c2csc3ccccc23)[C@@H]1CCCO | 36.5 µM |
| C/C(=C\C(=S)Nc1ccccc1)Nc1ccc2ccccc2c1 | 37.8 µM |
| CCOC(=O)c1c(-c2ccc(OC)cc2)csc1NC(=O)CNCc1ccco1 | 22.3 µM |
| COc1ccc(N=c2ssnc2Cl)cc1 | 90.6 µM |
| CC(C)CCC[C@@H](C)[C@H]1CC[C@H]2[C@@H]3C(=O)C=C4C[C@@H](O)CC[C@]4(C)[C@H]3CC[C@]12C | 38.5 µM |
| COc1ccc(N=c2cc(-c3ccc(O)cc3)oc3ccccc23)cc1 | 23.3 µM |
| CCC(C)NC(=O)c1cn(CC)c2cc(N3CCN(C(=O)c4ccco4)CC3)c(F)cc2c1=O (stereo unspecified) | 23.5 µM |
| CCc1ccc2nc(N(CCCN(C)C)C(=O)c3ccc(S(=O)(=O)N4CCCc5ccccc54)cc3)sc2c1 | 35 µM |
| CC1CCCN(Cc2c(O)ccc3c(=O)c(-c4nc5ccccc5s4)c(N)oc23)C1 (stereo unspecified) | 11.7 µM |
| COC(=O)C(C)Oc1ccc(-c2nccc(-c3ccccn3)n2)cc1 (stereo unspecified) | 3.91 µM |
| COc1cc(NC(=O)c2cnc(N)s2)cc(C(=O)Nc2cccc(C(F)(F)F)c2)c1 | 85.9 µM |
| O=C(c1ccccc1)c1nn(-c2ccc(Cl)cc2)c(=O)cc1C(F)(F)F | 20.1 µM |
| O=[N+]([O-])c1ccc(C2Oc3ccccc3C3CC(c4ccccc4)=NN32)s1 (stereo unspecified) | 7.13 µM |
| C/C(=N\NC(N)=S)c1ccc(Cl)s1 | 11.8 µM |
| CCc1nnc(NS(=O)(=O)c2ccc(N/C=C\C(=O)c3cccc(OC)c3)cc2)s1 | 38.5 µM |
| COc1ccc(/C=C2\CCC/C(=C\C=N\N(C)C)C2=O)cc1 | 12.4 µM |

| Compound | IC50 |
| --- | --- |
| CC(C)(C)c1nn(-c2ccccc2)c2[nH]c(=O)c(CNCc3ccc4c(c3)OCO4)cc12 | 20.8 µM |
| CN1/C(=C\C(=O)COC(=O)c2ccc([N+](=O)[O-])o2)C(C)(C)c2ccccc21 | 20.9 µM |
| O=C(CSc1nnc(-c2cccs2)o1)NCC1CN(Cc2ccccc2)CCO1 (stereo unspecified) | 20.7 µM |
| COc1ccc(-c2c(C#N)c(SCC(=O)c3cc4ccccc4oc3=O)nc(C)c2C(=O)Nc2ccccc2)cc1 | 72.3 µM |
| COC(=O)CCc1nc2c(C#N)c(-c3ccc(Cl)cc3)ccn2n1 | 2.71 µM |
| CC1CCN(c2nc(Cl)nc(Nc3ccc([N+](=O)[O-])cc3)n2)CC1 | 78.9 µM |
| Cc1cc(C)n(-c2cc(C(C)(C)C)nc3c(-c4ccccc4)cnn23)n1 | 36.1 µM |
| O=C(Oc1ccccc1)c1ccccc1OS(=O)(=O)c1ccccc1 | 2.37 µM |
| O=S(=O)(Nc1ccc2[nH]ncc2c1)c1ccccc1Cl | 11.3 µM |
| Cc1cc2nc(/N=C(\N)NC(=O)C(C)C)nc(C)c2cc1C | 18.1 µM |
| O=C1/C(=N\S(=O)(=O)c2cccs2)C([n+]2ccc(CCCc3ccccc3)cc2)=C([O-])c2ccccc21 | 22.8 µM |
| CC(c1nc2ccccc2c(=O)[nH]1)N(C)CCOc1ccc(Cl)cc1 (stereo unspecified) | 40.7 µM |
| Cc1nc(SCC(=O)NC2CCCCC2)[nH]c(=O)c1C | < 0.2 µM |
| Clc1ccc(Nc2ccc(-n3ccnc3)nn2)cc1Cl | 21.9 µM |
| COc1ccc(-n2c(-c3ccc(Cl)cc3)c[n+]3c2CCc2ccccc2-3)cc1 | 19.4 µM |
| Cc1nc2sccn2c(=O)c1CCN1CCC(=C(c2ccccc2)c2ccc(F)cc2)CC1 | 35.8 µM |
| Cc1cc(C)c2c(CN3CCN(Cc4ccccc4)CC3)cc(=O)oc2c1C | 48.1 µM |
| CCCc1ccc(NC(=O)C2CCN(c3cnccn3)CC2)cc1 | 67.2 µM |
| O=C1C=C(c2ccc3[nH]ccc3c2)C[C@@H](c2ccc(Cl)cc2)C1 | 84.5 µM |
| CCOC(=O)COc1cc([N+](=O)[O-])cc2cccnc12 | 30.5 µM |
